In patent US7091351B2, “Vanadium compounds for treating cancer” (Parker Hughes Institute, priority 1998, dated 2006):

Tests used:
Type in all cases: cell-based, human
[1] = test system: Tera-2 testicular cancer cells; assay: MTT cytotoxicity assay of vanadocenes, TERA-2 cells; settings: 24 h, 1.9-250 μM
Experimental: (§1) Human testicular cancer cell lines, Tera-2 (embryonal carcinoma) and Ntera-2 (pluripotent embryonal carcinoma) were obtained from the American Type Culture Collection (ATCC) (Rockeville, Md.) and propagated in T-25, T-75, or T-150 cm^2 tissue culture flasks (Corning Corp., Corning, N.Y.) in McCoy's 5A medium and Dulbecco's modified Eagle's medium respectively. Both media were supplemented with 10% fetal calf serum (FCS), 4 mM glutamine, 100 U/ml penicillin G, and […] streptomycin sulfate. All tissue culture reagents were obtained from Life Technologies Inc. (GIBCO-BRL), Gaithersburg, Md. Cell lines were cultivated for a minimum of two passages after thawing prior to experimentation. Other cell lines that were used in this study were the human B-lineage acute lymphoblastic leukemia (ALL) cell line NALM-6. Uckun, F. M., Evans, W. E., Forsyth, C. J., Waddick, K. G., Tuel-Ahlgren, L., Chelstrom, L. M., Burkhardt, A., Bolen, J., Myers, D. E. Biotherapy of B-cell precursor leukemia by targeting genistein to CD19-associated tyrosine kinase. Science (Washington DC) 267:886–91, 1995; T-lineage ALL cell line MOLT-3, Waurzyniak, B., Shneider, E. A., Tumer, N., Yanishevski, Y., Gunther, R., Chelstrom, L., Wendorf, H., Myers, D. E., Irvin, J. D., Messinger, Y., Ek, O., Zeren, T., Chandan-Langlie, M., Evans, W. E., Uckun, F. M. In vivo toxicity, pharmacokinetics, and antileukemic activity of TXU (anti-CD7)-pokeweed antiviral protein immunotoxin. Clinical Cancer Research 3:881–890, 1997; AML cell line HL-60, Perentesis, J. P., Waddick, K. G., Bendel, A. E., Shao, Y., Warman, B. E., Chandan-Langlie, M., and Uckun, F. M. Induction of apoptosis in multi-drug resistant andradiation-resistant acute myeloid leukemia cells by a recombinant fusion toxin directed against the granulocyte macrophage colony stimulating factor receptor. Clin. Cancer Res. 3:347–355, 1997; breast cancer cell lines MDA-MB-231 and BT-20, Uckun, F. M., Narla, R. K., Jun, X., Zeren, T., Venkatachalam, T., Waddick, K. G., Rostostev, A., Myers, D. E. Cytotoxic activity of EGF-genstein against breast cancer cells. Clin. Cancer Res. 4:901–912, 1998; glioblastoma cell lines U87 and U373, Narla, R. K., Liu, X., Myers, D. E., and Uckun, F. M. 4-(3′-Bromo-4′hydroxylphenyl)-amino-6,7-dimethoxyquinazoline (WHI-P154): A novel quinazoline derivative with potent cytotoxic activity against human glioblastoma cells. Clin. Cancer Res. 4:1405–1414, 1998.
(§2) MTT (3-[4,5-dimethyl thiazol-2-yl]-2,5-diphenyltetrazolium bromide)-based colorimetric assays were used for evaluation of the cytotoxicity of vanadocene compounds. Mosmann, T. Rapid colorimetric assay for cellular growth and survival: application to proliferation and cytotoxicity assays. J. Immunol. Methods, 65: 55–63, 1983. Briefly, cells were harvested with 0.125% (w/v) trypsin-0.02% EDTA (GIBCO-BRL) from exponential-phase maintenance cultures and centrifuged (300 g×5 min). After suspension and counting, cells were dispensed within triplicate 96-well tissue culture plates in 100 μl volumes. After 24 h incubation, the culture medium was discarded and replaced with 100 μl of fresh medium containing serial two-fold dilutions of drugs in medium to yield 1.9 μM to 250 μM. All compounds were reconstituted in DMSO to a concentration of 100 mM, and the stock solution was made fresh for each experiment. Control wells consisted of medium containing 0.25% of DMSO alone were used for solvent control. Culture plates were then incubated for 24 h before adding 10 μl of MTT solution (5 mg/ml in PBS) to each well. Wells containing only medium and MTT were used as controls for each plate. The tetrazolium/formazan reaction was allowed to proceed for 4 h at 37° C., and then 100 μl of the solubilization buffer (10% sodium dodecyl sulfate in 0.1% HCl) were added to all wells and mixed thoroughly to dissolve the dark blue formazan crystals. […]

[2] = test system: Ntera-2 testicular cancer cells; assay: MTT cytotoxicity assay of vanadocenes, NTERA-2 cells; settings: 24 h, 1.9-250 μM
Experimental: as §1, §2

[3] = test system: NALM-6 B-lineage acute lymphoblastic leukemia cells; assay: MTT cytotoxicity assay of vanadocenes, NALM-6 cells; settings: 24 h
Experimental: as §1
as §2, with “control.” for “control. Culture plates were then incubated for 24 h before adding 10 μl of MTT solution (5 mg/ml in PBS) to each well. Wells containing only medium and MTT were used as controls for each plate. The tetrazolium/formazan reaction was allowed to proceed for 4 h at 37° C., and then 100 μl of the solubilization buffer (10% sodium dodecyl sulfate in 0.1% HCl) were added to all wells and mixed thoroughly to dissolve the dark blue formazan crystals.”

[4] = test system: Ntera-2 testicular cancer cells; assay: Flow cytometric TUNEL apoptosis assay, NTERA-2 cells; settings: 24 h, TUNEL-positive nuclei
Experimental: (§3) A flow cytometric two-color terminal […] transferase (TdT)-mediated digoxigenin-uridine triphosphate (dUTP) nick-end labeling assay (TUNEL) was employed to detect apoptotic nuclei. Gavrieli, Y., Sherman, Y., Ben-Sasson, S. A. Identification of programmed cell death in situ via specific labeling of nuclear DNA fragmentation. J. Cell Biol., 119: 493–501, 1992. Exponentially growing cells (10^6/ml) were incubated in DMSO alone (0.1%) or treated with 100 μM each of the 16 vanadocenes (VDB, VDC, VMDC, VDI, VDA, VDCN, VDOCN, VDSCN, VDSeCN, VDT, VDCO, VDFe, VD(acac), VDH, VD(dpy), and VD(dtc) in 0.1% DMSO for 24 h. Cells were washed in PBS, fixed in 4% paraformaldehyde in PBS for 15 min on ice. Following two washings in PBS, they were permeabilized with 0.1% Triton X-100 in 0.1% sodium citrate for 2 min on ice, and washed twice in PBS. Labeling of exposed 3′-hydroxyl (3′-OH) ends of fragmented nuclear DNA was performed using TdT and fluorescein isothiocyanate (FITC)-conjugated dUTP according to the manufacturer's recommendations (Boehringer Mannheim, Indianapolis, Ind.). Cells were counterstained with 5 μg/ml PI. Control samples included: (i) untreated cells; (ii) cells incubated with the reaction mixture without the TdT enzyme. Cells were analyzed with a FACS Calibur flow cytometer (Becton Dickinson, Mountain View, Calif.). Relative DNA content (PI) was detected with band-pass filter 585/42, and dUTP incorporation (FITC) was detected with band-pass filter 530/30. Fluorescence was compensated for in the acquisition software using single-label control samples. Data were acquired in listmode, gated to 10,000 events per sample, and analyzed with the use of CELLQuest software program (Becton Dickinson). […] Vanadocene-induced apoptosis is shown by an increase in the number of cells staining with FITC-dUTP. The M1 and M2 gates were used to demarcate non-apoptotic and apoptotic PI-counterstained cell populations, respectively. TUNEL assays were performed using two testicular cell lines Tera-2 and Ntera-2 following exposure to each of the 16 vanadocenes. In other experiments, MC540 binding (as an early marker of apoptosis) and PI permeability (as a marker of advanced stage apoptosis) were simultaneously measured in human cancer cells 24 hours after exposure to vanadocenes, as previously described. Uckun, F. M., Narla, R. K., Jun, X., Zeren, T., Venkatachalam, T., Waddick, K. G., Rostostev, A., Myers, D. E. Cytotoxic activity of EGF-genstein against breast cancer cells. Clin. Cancer Res. 4:901–912, 1998. Vassilev, A., Ozer, Z., Navara, C., Mahajan, S., and Uckun, F. M. Bruton's tyrosine kinase as an inhibitor of the Fas/CD95 death-inducing signaling complex. J. Biol. Chem. 274:1646–56, 1999. Whole cells were analyzed using a FACStar Plus flow cytometer (Becton Dickinson, San Jose, Calif.). All analyses were done using 488 nm excitation from an argon laser. MC540 and PI emissions were split with a 600 nm short pass dichroic mirror and a 575 nm band pass filter was placed in front of one photomultiplier tube to measure MC540 emission and a 635 nm band pass filter was used for PI emission.

[5] = test system: Tera-2 testicular cancer cells; assay: Flow cytometric TUNEL apoptosis assay, TERA-2 cells; settings: 24 h, TUNEL-positive nuclei
Experimental: as §3

U373 glioblastoma cells = assay: MTT cytotoxicity assay of vanadocenes, U373 cells; settings: 24 h
Experimental: as §1, §2

[6] = test system: MDA-MB-231 breast cancer cells; assay: MC540 binding / PI permeability apoptosis assay, MDA-MB-231; settings: 100 μM, 24 hours
Experimental: (§4) A flow cytometric two-color terminal […] transferase (TdT)-mediated digoxigenin-uridine triphosphate (dUTP) nick-end labeling assay (TUNEL) was employed to detect apoptotic nuclei. Gavrieli, Y., Sherman, Y., Ben-Sasson, S. A. Identification of programmed cell death in situ via specific labeling of nuclear DNA fragmentation. J. Cell Biol., 119: 493–501, 1992. […] Cells were analyzed with a FACS Calibur flow cytometer (Becton Dickinson, Mountain View, Calif.). Relative DNA content (PI) was detected with band-pass filter 585/42, and dUTP incorporation (FITC) was detected with band-pass filter 530/30. Fluorescence was compensated for in the acquisition software using single-label control samples. Data were acquired in listmode, gated to 10,000 events per sample, and analyzed with the use of CELLQuest software program (Becton Dickinson). […] In other experiments, MC540 binding (as an early marker of apoptosis) and PI permeability (as a marker of advanced stage apoptosis) were simultaneously measured in human cancer cells 24 hours after exposure to vanadocenes, as previously described. […] Whole cells were analyzed using a FACStar Plus flow cytometer (Becton Dickinson, San Jose, Calif.). […]

U87 glioblastoma cells = assay: MC540 binding / PI permeability apoptosis assay, U87; settings: 100 μM, 24 hours
Experimental: as §4

[7] = test system: BT-20 breast cancer cells; assay: MC540 binding / PI permeability apoptosis assay, BT-20; settings: 100 μM, 24 hours
Experimental: as §4

[8] = test system: HL60 acute myeloid leukemia cells; assay: MC540 binding / PI permeability apoptosis assay, HL-60; settings: 100 μM, 24 hours
Experimental: as §4

Row | Compound | IC50 [1] | IC50 [2] | IC50 [3] | % Apoptosis at 100 μM NTERA-2 [4] | % Apoptosis at 100 μM TERA-2 [5] | IC50 (U373 glioblastoma cells) | cells with dual MC540/PI fluorescence (advanced stage apoptosis), MDA-MB-231 [6] | total percentage of apoptotic cells (early and advanced stage), MDA-MB-231 [6] | cells with dual MC540/PI fluorescence (advanced stage apoptosis), U87 (U87 glioblastoma cells) | total percentage of apoptotic cells (early and advanced stage), U87 (U87 glioblastoma cells) | cells with dual MC540/PI fluorescence (advanced stage apoptosis), BT-20 [7] | total percentage of apoptotic cells (early and advanced stage), BT-20 [7] | cells with dual MC540/PI fluorescence (advanced stage apoptosis), HL-60 [8] | total percentage of apoptotic cells (early and advanced stage), HL-60 [8]
1 | [Br-].[Br-].[V+2].c1cc[cH-]c1.c1cc[cH-]c1 [VDB, VCp2Br2] | 154 µM | 70 µM | 17 µM | 93 (93, 94) % | 84 (83, 86) % | 62 µM |  |  |  |  |  |  |  | 
2 | C1=C[CH]([V+2][CH]2C=CC=C2)C=C1.[N-]=C=[Se].[N-]=C=[Se] [VDSeCN, VCp2(NCSe)2] | 9 µM | 22 µM | 3 µM | 99.6 ± 0.2 (N = 4) % | 78 (75, 80) % | 2 µM | 67% | 72% | 79% | 90% | 40% | 61% | 51% | 98%
3 | [N-]=[N+]=[N-].[N-]=[N+]=[N-].[V+2].c1cc[cH-]c1.c1cc[cH-]c1 [VDA, VCp2(N3)2] | 70 µM | 68 µM | 16 µM | 85 (78, 93) % | 85 (78, 92) % | 51 µM |  |  |  |  |  |  |  | 
4 | [I-].[I-].[V+2].c1cc[cH-]c1.c1cc[cH-]c1 [VDI, VCp2I2] | 221 µM | 204 µM | 18 µM | 57 (46, 69) % | 72 (71, 73) % | 5 µM |  |  |  |  |  |  |  | 
